The assay in a line: Body and adipose tissue weight of CL316,243-treated mice (trial 2, FIG. 3). In kind it is in vivo. The text has this: FIG. 3 is a pair of bar graphs showing the body (FIG. 3a) and adipose (FIG. 3b) weights of mice treated with CL316,243 (hatched bars), and corresponding controls(solid bars).
In trial 2, male, inbred NON mice were fed a control with or without the presence of the β-3 adrenergic agonist CL316,243 for four weeks (at 0.001% CL316,243 by weight in the dietary chow).
In both studies, five treated and five control mice were used. Following the treatments and the killing of the mice, tissues and plasma were taken, chilled to −80 ° C. and shipped to the analysis laboratory at Lipomics Technologies in a frozen state.
Tables 7 and 8 show the concentrations of lipid metabolites present in adipose, plasma, heart and liver tissues in mice treated with CL3 16,243 and their controls. In Tables 5 and 7, the data are expressed as nanomoles per gram of tissue or plasma. In tables 6 and 8, the data are expressed as a percentage of total fatty acids within each lipid class.

Consider `C[C@H](Cc1ccc2c(c1)OC(C(=O)[O-])(C(=O)[O-])O2)NC[C@H](O)c1cccc(Cl)c1.[Na+].[Na+]` [CL316,243], for which the mouse body weight entry (CL316,243 4 weeks vs controls (FIG. 3a)) is on record as “significant decrease”. Also, the adipose tissue weight entry (CL316,243 4 weeks vs controls (FIG. 3b)) is “significant decrease”.

Source of the values: US20050009005A1, “Methods of using quantitative lipid metabolome data” (Lipomics Technologies, Inc., priority 2001, published 2005).
